Tested on: Pseudomonas aeruginosa
Assay: Biocide test of quats in combination with THPS (ACCUCOUNT ATP)
Format: cell-based
Conditions: 400 ppm (active) quat with addition of 8% THPS, compared to untreated sample
Procedure: The ability of POLY SUGA quats to act as biocides was tested. […] Each quat was compared to an untreated sample as well as a sample treated with a nonpolymeric cationic quat used as a positive control. Each test contained Pseudomonas aeruginosa, grown to a final density of 1×E8 per mL of cells in 3% sodium chloride containing growth medium. 400 ppm (active) of each quat was added to the mix and incubated for 4 and 24 hrs. After this time, 10 ml aliquots of each sample were drawn for analysis.
Active microbial populations were estimated using the ACCUCOUNT method. ACCUCOUNT uses ATP concentrations measured using fluorescence to indirectly quantitate the number of active microbes in a given sample. It is assumed that each cell contains 1 fg of ATP. By correlating the detected fluorescence to a known concentration of standard-the number of bacterial cells/mL is estimated.
The ability of each quat to act together with a known biocide to reduce microbial populations was tested. […] THPS alone and a non-polymeric cationic quat+THPS were used as positive controls.

## tetrakis(hydroxymethyl)phosphonium sulfate [THPS]
4 Hrs.
  % reduction in bacteria: 89.75%
24 Hrs.
  % reduction in bacteria: 91.73%

Reference: US11419333B2, “Compositions and methods for biofilm removal” (ChampionX USA Inc., priority 2018, dated 2022)
